From BindingDB's records for doi:10.1021/jm701487t (F. Hoffmann-La Roche, 2008)

Biological target: Cannabinoid receptor 2 (Homo sapiens, UniProt P34972)
Sequence (P34972 whole entry): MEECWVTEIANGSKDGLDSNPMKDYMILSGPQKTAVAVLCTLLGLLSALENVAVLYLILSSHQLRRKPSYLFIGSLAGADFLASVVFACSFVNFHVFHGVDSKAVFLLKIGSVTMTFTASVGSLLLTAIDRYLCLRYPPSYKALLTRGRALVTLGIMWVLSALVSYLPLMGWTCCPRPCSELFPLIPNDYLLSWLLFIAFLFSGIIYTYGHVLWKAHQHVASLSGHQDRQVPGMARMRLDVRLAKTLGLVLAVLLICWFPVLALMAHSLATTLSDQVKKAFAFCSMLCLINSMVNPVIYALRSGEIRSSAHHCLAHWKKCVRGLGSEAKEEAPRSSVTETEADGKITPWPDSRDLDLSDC

Ki: 3 nM
SMILES: O=C(c1cc2c(cc1F)OC(c1ccc(F)cc1)(c1ccc(Cl)cc1Cl)O2)N1CCOCC1 (stereo unspecified) [CAS_24828562]
